Test results reported in patent US9096524B2, “Anthelmintic agents and their use” (Intervet International B.V., priority 2009, dated 2015).
Like-named read-outs stand apart in the source and are kept apart here.

What was measured:
[1] = test system: A. galli (intestinal roundworm of chicken) larval stage 3; O. dentatum (nodular worm of swine) larval stages 3 and 4; test: Activity against Ascaridia galli and Oesophagostomum dentatum larvae in vitro (minimum effective concentration); format: cell-based
[2] = test system: Haemonchus contortus larval stage 4, isolate with a resistance to benzimidazoles and ivermectin and anthelmintic-sensitive isolate; test: Resistance-breaking activity against Haemonchus contortus L4 in vitro, resistant isolate compared with sensitive isolate; format: cell-based; details: isolate resistant to benzimidazoles and ivermectin vs sensitive isolate
Procedure: Anthelmintic resistance-breaking effects of compounds of this invention were tested in vitro using larval stage 4 (“L4”) of the parasitic nematode species Haemonchus contortus (Barber's pole worm in ruminants). One isolate of Haemonchus contortus with a resistance to benzimidazoles and ivermectin was tested in comparison to the anthelmintic-sensitive isolate of Haemonchus contortus. When conducting these experiments, various concentrations of the compounds were incubated in 96-well microtiter plates. Parasites were then distributed at 20 larvae per well. The anthelmintic effects were classified by microscopic examination. The microscopic examination included assessing mortality, damage, motility, progression of development, and neutral red uptake by the larvae in comparison to a DMSO-control and standard anthelmintics. The anthelmintic effects were defined by the minimum effective concentration (“MEC”).

Haemonchus contortus [3] = test: Efficacy against Haemonchus contortus in jirds; format: in vivo, jirds (Meriones unguiculatus); details: 72 h, read-out: % Reduction in H.
Method in brief: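 Jirds orally infected with ~750-3,000 H. contortus L3 larvae were dosed once, orally or subcutaneously, at 2, 10 and/or 50 mg/kg on day 10 post-infection. Stomach larval burden was counted at necropsy 3 days post-treatment; efficacy is the reduction of mean count versus untreated infected controls.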

Haemonchus contortus [4] = test: Efficacy against Haemonchus contortus in sheep; format: in vivo; details: oral, single treatment, worm burden in abomasum 7 days after treatment
Procedure: Anthelmintic effects of compounds of this invention were tested in vivo using Haemonchus contortus in sheep. The sheep were orally infected with approximately 5,000 third-stage larvae of Haemonchus contortus. Thirty-five days after infection, the sheep in the treatment groups were treated once orally at a dose of 2, 5, 10, and/or 50 mg per kg bodyweight. Seven days after treatment, the sheep were necropsied, and the worm burden in the abomasum was determined. The efficacy was defined as the reduction of the mean worm count in the infected sheep of the treatment groups in comparison to the infected sheep in the untreated negative control group.

[5] = read-out: MEC (minimum effective concentration) against one or more of the tested nematodes, in vitro, one or more of A. galli L3, O. dentatum L3, L4, threshold 1 μM
[6] = read-out: MEC (minimum effective concentration) against one or more of the tested nematodes, in vitro, one or more of A. galli L3, O. dentatum L3, L4, threshold 7 μM
[7] = read-out: MEC (minimum effective concentration) against two or more of the tested nematodes, in vitro, two or more of A. galli L3, O. dentatum L3, L4, threshold 1 μM

Compound | minimal effective concentration [1, 5] [µM] | minimal effective concentration [1, 6] [µM] | minimal effective concentration [1, 7] [µM] | activity (MEC) against the resistant versus the sensitive isolate of Haemonchus contortus [2] | inhibition in vivo at 10 mg/kg (Haemonchus contortus [3]; po) [%] | inhibition in vivo at 10 mg/kg (Haemonchus contortus [3]; sc) [%] | inhibition in vivo at 50 mg/kg (Haemonchus contortus [3]; po) [%] | inhibition in vivo at 50 mg/kg (Haemonchus contortus [3]; sc) [%] | % Reduction in H. (Haemonchus contortus [4]; 50 mg/kg) [%] | % Reduction in H. (Haemonchus contortus [4]; 10 mg/kg) [%]
O=C(CCCN1CCN(c2ccc(C(F)(F)F)cc2)CC1)N1CCC(Nc2ccc(SC(F)(F)F)cc2)CC1 [Example 48, 4-[4-(4-trifluoromethyl-phenyl)-piperazin-1-yl]-1-[4-(4-trifluoromethylsulfanyl-phenylamino)-piperidin-1-yl]-butan-1-one] | < 1 | < 7 | < 1 | the same activity against the resistant and the sensitive isolate | 99 | 92 |  |  |  | 
N#Cc1ccc(NC2CCN(C(=O)CCN3CCN(c4ccc(Cl)cc4)CC3)CC2)cc1C(F)(F)F [Example 325] |  |  | < 1 | the same activity against the resistant and the sensitive isolate |  |  | 92 | 97 | 96 | 
O=C(CCN1CCC(c2ccc(Oc3ccccc3)cc2)CC1)N1CCC(Oc2ccc([N+](=O)[O-])c(C(F)(F)F)c2)CC1 [Example 45, 1-[4-(4-nitro-3-trifluoromethyl-phenoxy)-piperidin-1-yl]-3-[4-(4-phenoxy-phenyl)-piperidin-1-yl]-propan-1-one] |  |  |  | the same activity against the resistant and the sensitive isolate |  |  | 94 | 94 |  | 
CC(CN1CCN(c2ccc(C(F)(F)F)cc2)CC1)C(=O)N1CCC(Nc2ccc([N+](=O)[O-])c(C(F)(F)F)c2)CC1 (stereo not drawn) [Example 64, 2-methyl-1-[4-(4-nitro-3-trifluoromethyl-phenylamino)-piperidin-1-yl]-3-[4-(4-trifluoromethyl-phenyl)-piperazin-1-yl]-propan-1-one] | < 1 | < 7 | < 1 | the same activity against the resistant and the sensitive isolate |  |  | 100 | 100 |  | 75
